Reference: ChEMBL document CHEMBL1121945, “Nitrogen bridgehead compounds. 18. New antiallergic 4H-pyrido[1,2-a]pyrimidin-4-ones. 1” (J Med Chem, 1982)
pEC50: −log10 of the molar value.

What was measured:
Rattus norvegicus [1] = organism: Rattus norvegicus; assay: Inhibition of histamine release from sensitized rat mast cells in vitro; type: functional; details: for pEC50: read-out: EC50
Rattus norvegicus [2] = assay: Inhibition of rat passive cutaneous anaphylaxis (PCA) reaction after intravenous administration; type: functional; details: for ED50: Rattus norvegicus, iv, read-out: ID50 (the source's name)
Rattus norvegicus [3] = assay: Inhibition of rat passive cutaneous anaphylaxis (PCA) reaction was determined after oral administration; type: functional; details: for ED50: read-out: ID50 (the source's name)
Rattus norvegicus [4] = organism: Rattus norvegicus; assay: The compound was tested for its ability to inhibit histamine release from sensitized rat mast cells in vitro; type: functional, cell-based; details: for pEC50: Mast cell

SMILES	ED50 (Rattus norvegicus [2]) [µmol/kg]	ED50 (Rattus norvegicus [3]; Rattus norvegicus, po) [µmol/kg]	pEC50 (Rattus norvegicus [1]; Rattus norvegicus, Mast cell)	other results
CC1CC/C(=N\Nc2ccc(C(=O)O)cc2)c2ncc(C(=O)O)c(=O)n21 (configuration not stated)	7.6			EC50 (Rattus norvegicus [1]; mast cells): 1000 uM l-1
CC1CCC(=NNc2ccccc2C(=O)O)c2ncc(C(=O)O)c(=O)n21 (single isomer, unassigned; (+))				EC50 (Rattus norvegicus [1]; mast cells): 1100 uM l-1; ID50 (Rattus norvegicus [2]): 37.1 µM/kg
CC1CC/C(=N\Nc2cccc(I)c2)c2ncc(C(=O)O)c(=O)n21 (configuration not stated)		> 1000		
CC1CC/C(=N\Nc2ccc(C3CC3)cc2)c2ncc(C(=O)O)c(=O)n21 (configuration not stated)	41.1	100	6.00	
Cc1cccc(N/N=C2\CCC(C)n3c2ncc(C(=O)O)c3=O)c1 (configuration not stated)	0.4	72.5	4.14	
CC1CC/C(=N\Nc2ccccc2F)c2ncc(C(=O)O)c(=O)n21 (configuration not stated)	5	> 1000	5.92	
CC1CC/C(=N\Nc2cccc(C(=O)O)c2)c2ncc(C(=O)O)c(=O)n21 (configuration not stated)	26.6	> 100		pEC50 (Rattus norvegicus [4]): 5.00
CC1CC/C(=N\Nc2ccc(Br)cc2)c2ncc(C(=O)O)c(=O)n21 (configuration not stated)	0.8	> 100	5.70	
CC1CC/C(=N\Nc2ccccc2I)c2ncc(C(=O)O)c(=O)n21 (configuration not stated)		> 1000		
COc1ccc(N/N=C2\CCC(C)n3c2ncc(C(=O)O)c3=O)cc1 (configuration not stated)	0.8	7.6		EC50 (Rattus norvegicus [1]; mast cells): 128 uM l-1
CC1CC/C(=N\Nc2cccc(Cl)c2)c2ncc(C(=O)O)c(=O)n21 (configuration not stated)	0.6	> 100		EC50 (Rattus norvegicus [1]; mast cells): 311 uM l-1
CC1CC/C(=N\Nc2ccccc2C(F)(F)F)c2ncc(C(=O)O)c(=O)n21 (configuration not stated)		> 1000		
CCOc1ccc(N/N=C2\CC[C@H](C)n3c2ncc(C(=O)O)c3=O)cc1	100	> 100	4.72	
CC1CC/C(=N\Nc2ccccc2Cl)c2ncc(C(=O)O)c(=O)n21 (configuration not stated)		> 1000		
CC(C)c1ccc(N/N=C2\CCC(C)n3c2ncc(C(=O)O)c3=O)cc1 (configuration not stated)	2.4	> 100	5.92	
CCOc1ccc(N/N=C2\CC[C@@H](C)n3c2ncc(C(=O)O)c3=O)cc1	0.2	> 100	6.00	
CC1CC/C(=N\Nc2ccc(C(=O)O)cc2)c2nccc(=O)n21 (configuration not stated)	> 100	> 100		EC50 (Rattus norvegicus [1]; mast cells): 450 uM l-1
CC1CC/C(=N\Nc2cccc(Br)c2)c2ncc(C(=O)O)c(=O)n21 (configuration not stated)	0.4	> 320	5.17	
CCOc1ccccc1N/N=C1\CCC(C)n2c1ncc(C(=O)O)c2=O (configuration not stated)		> 1000		
CC1CC/C(=N\Nc2ccccc2)c2ncc(CC(=O)O)c(=O)n21 (configuration not stated)	100			EC50 (Rattus norvegicus [1]; mast cells): 430 uM l-1
C[C@H]1CCC(=NNc2ccccc2)c2ncc(C(=O)O)c(=O)n21 (single isomer, unassigned; (+))				pEC50 (Rattus norvegicus [1]; mast cells): 6.22; ID50 (Rattus norvegicus [2]): 0.3 µM/kg; ID50 (Rattus norvegicus [3]): 1 µM/kg
CC1CC/C(=N\Nc2ccc(F)cc2)c2ncc(C(=O)O)c(=O)n21 (configuration not stated)	12.2	> 1000	5.92	
CC1CC/C(=N\Nc2ccccc2[N+](=O)[O-])c2ncc(C(=O)O)c(=O)n21 (configuration not stated)		> 1000		

SMILES	ED50 (Rattus norvegicus [2]) [µmol/kg]	ED50 (Rattus norvegicus [3]; Rattus norvegicus, po) [µmol/kg]	pEC50 (Rattus norvegicus [1]; Rattus norvegicus, Mast cell)	other results
O=C(O)c1cnc2n(c1=O)CCC/C2=N\Nc1ccccc1	31.6	> 100	5.54	
CCOc1cccc(N/N=C2\CCC(C)n3c2ncc(C(=O)O)c3=O)c1 (configuration not stated)	0.2	> 100	5.33	
CC(=O)c1ccccc1N/N=C1\CCC(C)n2c1ncc(C(=O)O)c2=O (configuration not stated)		> 1000		
CC1CCCc2ncc(C(=O)O)c(=O)n21 (configuration not stated)	240			
CC1CC/C(=N\Nc2ccccc2Br)c2ncc(C(=O)O)c(=O)n21 (configuration not stated)		> 320		
CC1CC/C(=N\Nc2ccccc2)c2ncc(C(N)=O)c(=O)n21 (configuration not stated)		> 1000		
CC1CC/C(=N\Nc2ccc(O)cc2)c2ncc(C(=O)O)c(=O)n21 (configuration not stated)	1.7	> 100	5.89	
CC1CC/C(=N\Nc2cccc(C(=O)O)c2)c2nccc(=O)n21 (configuration not stated)	> 100	> 100		EC50 (Rattus norvegicus [1]; mast cells): 655 uM l-1
CC1CCC(=NNc2ccccc2)c2ncc(C(=O)O)c(=O)n21 (configuration not stated)	0.6	1.2	5.66	
CC1CC/C(=N\Nc2ccc([N+](=O)[O-])cc2)c2ncc(C(=O)O)c(=O)n21 (configuration not stated)	0.8	> 320	5.05	
CC1CC/C(=N\Nc2ccc(-c3ccccc3)cc2)c2ncc(C(=O)O)c(=O)n21 (configuration not stated)	1.1	> 100	5.36	
COc1ccccc1N/N=C1\CCC(C)n2c1ncc(C(=O)O)c2=O (configuration not stated)		> 1000		
CNC(=O)c1ccc(N/N=C2\CCC(C)n3c2ncc(C(=O)O)c3=O)cc1 (configuration not stated)	9.6	> 100	4.00	
CCOC(=O)c1cnc2n(c1=O)C(C)CC/C2=N\Nc1ccccc1 (configuration not stated)		> 1000		
CC1CCn2c(ncc(C(=O)O)c2=O)/C1=N/Nc1ccccc1 (configuration not stated)	32	> 320	5.27	
CC1CC/C(=N\Nc2ccc(Cl)cc2)c2ncc(C(=O)O)c(=O)n21 (configuration not stated)	0.5			pEC50 (Rattus norvegicus [4]): 4.78; ED50 (Rattus norvegicus [3]): > 100 µmol/kg
C[C@H]1CC/C(=N\Nc2ccc(O)cc2)c2ncc(C(=O)O)c(=O)n21	110	> 100	4.58	
CC1CC/C(=N\Nc2cccc(C(F)(F)F)c2)c2ncc(C(=O)O)c(=O)n21 (configuration not stated)		> 1000		
CC(=O)c1ccc(N/N=C2\CCC(C)n3c2ncc(C(=O)O)c3=O)cc1 (configuration not stated)	9.5	> 100	5.09	
CCOC(=O)c1cnc2n(c1=O)C(C)CC/C2=N\Nc1ccccc1C(=O)O (configuration not stated)	10		4.00	
C[C@@H]1CC/C(=N\Nc2ccc(O)cc2)c2ncc(C(=O)O)c(=O)n21	0.14	> 100	4.81	
CC1CC/C(=N\Nc2ccccc2CCO)c2ncc(C(=O)O)c(=O)n21 (configuration not stated)	10.8	> 100		EC50 (Rattus norvegicus [1]; mast cells): 330 uM l-1
CCCCc1ccc(N/N=C2\CCC(C)n3c2ncc(C(=O)O)c3=O)cc1 (configuration not stated)	7.8	100	6.15	

SMILES	ED50 (Rattus norvegicus [2]) [µmol/kg]	ED50 (Rattus norvegicus [3]; Rattus norvegicus, po) [µmol/kg]	pEC50 (Rattus norvegicus [1]; Rattus norvegicus, Mast cell)	other results
CCOc1ccc(N/N=C2\CCC(C)n3c2ncc(C(=O)O)c3=O)cc1 (configuration not stated)	1.6	> 100	4.75	
CC1CC/C(=N\Nc2ccccc2)c2ncc(C(=O)NN)c(=O)n21 (configuration not stated)		> 1000		
C[C@H]1CCC(=NNc2ccccc2)c2ncc(C(=O)O)c(=O)n21 (single isomer, unassigned; (-))				pEC50 (Rattus norvegicus [1]; mast cells): 5.10; ID50 (Rattus norvegicus [2]): 54.8 µM/kg; ID50 (Rattus norvegicus [3]): >100 µM/kg
CC1CC/C(=N\Nc2ccc(I)cc2)c2ncc(C(=O)O)c(=O)n21 (configuration not stated)		> 1000		
CC1CC/C(=N\Nc2cccc([N+](=O)[O-])c2)c2ncc(C(=O)O)c(=O)n21 (configuration not stated)	0.5			ED50 (Rattus norvegicus [3]): > 100 µmol/kg
CCOC(=O)c1cnc2n(c1=O)C(C)CC/C2=N\Nc1cccc(C(=O)O)c1 (configuration not stated)	100			EC50 (Rattus norvegicus [1]; mast cells): 740 uM l-1
CC1CCC(=NNc2ccccc2C(=O)O)c2ncc(C(=O)O)c(=O)n21 (stereo in doubt; 56)				EC50 (Rattus norvegicus [4]): 1300 uM l-1; ID50 (Rattus norvegicus [2]): 0.48 µM/kg
CC1CC/C(=N\Nc2ccccc2)c2ncc(C#N)c(=O)n21 (configuration not stated)		> 1000		
CC1CC/C(=N\Nc2ccc(CC(=O)O)cc2)c2ncc(C(=O)O)c(=O)n21 (configuration not stated)	60.9	> 100	5.47	
CC1CC/C(=N\Nc2ccccc2O)c2ncc(C(=O)O)c(=O)n21 (configuration not stated)	0.26	> 100		EC50 (Rattus norvegicus [1]; mast cells): 208 uM l-1
CCOC(=O)c1cnc2n(c1=O)C(C)CC/C2=N\Nc1ccc(C(=O)O)cc1 (configuration not stated)	100		4.18	
Cc1ccccc1N/N=C1\CCC(C)n2c1ncc(C(=O)O)c2=O (configuration not stated)		> 1000		
CCc1ccc(N/N=C2\CCC(C)n3c2ncc(C(=O)O)c3=O)cc1 (configuration not stated)		> 1000		
CC1C/C(=N\Nc2ccccc2)c2ncc(C(=O)O)c(=O)n2C1 (configuration not stated)	5.7	> 320	4.89	
CC1CC/C(=N\Nc2ccc(C(F)(F)F)cc2)c2ncc(C(=O)O)c(=O)n21 (configuration not stated)	38.6	> 1000	6.55	
CCOC(=O)c1cccc(N/N=C2\CCC(C)n3c2ncc(C(=O)O)c3=O)c1 (configuration not stated)		> 100		
Cc1ccc(N/N=C2\CCC(C)n3c2ncc(C(=O)O)c3=O)cc1 (configuration not stated)	1.3	> 1000	6.55	
CC1CCC(=NNc2ccccc2C(=O)O)c2ncc(C(=O)O)c(=O)n21 (stereo in doubt; 57)		> 100		EC50 (Rattus norvegicus [1]; mast cells): 569 uM l-1; ID50 (Rattus norvegicus [2]): 0.5 µM/kg
O=C(O)c1cc(=O)c2c(OCC(O)COc3cccc4oc(C(=O)O)cc(=O)c34)cccc2o1 [CROMOLYN SODIUM]	1			
CC1CC/C(=N\Nc2ccccc2)c2nccc(=O)n21 (configuration not stated)		> 100		
CC(=O)c1cccc(N/N=C2\CCC(C)n3c2ncc(C(=O)O)c3=O)c1 (configuration not stated)		> 1000		
CC1CC/C(=N\Nc2ccccc2C(=O)O)c2nccc(=O)n21 (configuration not stated)	> 100	> 100	4.00	
